Results published in US20150110907A1, “METHOD OF TESTING THE ACTIVITY OF A POTENTIALLY ACTIVE SUBSTANCE TO INHIBIT THE ENZYMATIC ACTIVITY OF PHOSPHOLIPASE A2” (BASF Beauty Care Solutions France S.A.S., priority 2002, published 2015).
Where two headings read alike, the source gives them in different places.

Molecular target: T1, PLA2 of type I originating from pig pancreas (Sus scrofa, UniProt P00592)
T1 construct: originates from pig pancreas (enzyme of type I); from tissue; host or cells: pig pancreas
T1 sequence (P00592 23-146): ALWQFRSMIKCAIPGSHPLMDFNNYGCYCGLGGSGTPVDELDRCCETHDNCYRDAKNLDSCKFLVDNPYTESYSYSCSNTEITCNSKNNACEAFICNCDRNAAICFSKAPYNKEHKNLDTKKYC
Experiment: Acellular in vitro inhibition of PLA2 of type I, determination of free fatty acids
Type: biochemical
Conditions: for Inhibition (%) Product diluted at 1/100 in demineralized water: initial solution diluted at 1/100 in demineralized water; for inhibition at 1000 µM: 1 mM; for Inhibition by substance tested pure (%): percentage inhibition with respect to the control
Experimental: The study of the inhibition of phospholipase A2 (PLA2) is carried out in an acellular in vitro model which aims to be a reflection, near as possible, of the situation encountered in vivo.
The PLA2s of type I and of type II are used in vitro, in a model comprising: • 1) a substrate selected from the ester derivatives of arachidonic acid (such as β-arachidonoyl γ-palmitoyl L-α-phosphatidylcholine, which is a phospholipid containing arachidonic acid in SN2 position, site hydrolyzed by the phospholipase A2) which specifically is the fatty add involved in the synthesis of the mediators of the inflammation, • 2) a bivalent ion, playing the role of catalyst (such as calcium), • 3) an activator, which is indispensable for the activity of the enzyme, playing the role of solubilizer of the substrate in the reaction medium and enabling promoting the enzyme-substrate interaction (preferably sodium deoxycholate).
The enzyme in the presence of its cofactor is incubated for a determined period of time (e.g. about 15 minutes) with the inhibitor, and then a second incubation is carried out for (e.g. about 20 minutes) in the presence of the substrate which is preferably β-arachidonoyl γ-palmitoyl L-α-phosphatidylcholine and of the activator, which is preferably sodium deoxycholate.
At the end of this incubation, a determination of the non-esterified fatty acids is made on the reaction medium by an enzymatic technique that it is for example possible to follow by colorimetry at a defined wavelength.
In parallel, a control corresponding to the activity of the phospholipase A2 in the absence of inhibitor is carried out.
The PLA2 in aqueous solution (35 Units/ml), is placed in the presence of 3 mM β-arachidonoyl γ-palmitoyl L-α-phosphatidylcholine, which is a phospholipid containing, in SN2 position, site hydrolyzed by the phospholipase A2, arachidonic add, which is specifically an important fatty acid involved in the synthesis of the mediators of inflammation,
a) the enzyme in the presence of the cofactor (calcium) is incubated for 15 minutes at ambient temperature (20° C.) with the inhibitor;
b) then, a second incubation of 20 minutes is made in the presence of β-arachidonoyl γ-palmitoyl L-α-phosphatidylcholine (3 mM) and sodium deoxycholate (1.6 mM).
At the end of this incubation, a determination of the free fatty acids, thus non-esterified free fatty acids, is made on the reaction medium by a classical enzymatic technique which is well-known to the person skilled in the art, that it is possible to follow by colorimetry, e.g. here at 550 nm,
The anti-PLA2 activity of increasing concentrations of the product selected was measured over three different batches of starting material. Each determination was made in triplicate, […]

[1] = non-diluted, initial concentrations: aristolochic acid 2 mM, p-bromophenacyl bromide 10 mM, nordihydroguaiaretic acid 5 mM
[2] = Table VII, read-out: percentage inhibition with respect to control
[3] = Table VII, 10 mM, read-out: percentage inhibition with respect to control

In the case of `COc1cccc2c1cc([N+](=O)[O-])c1c(C(=O)O)cc3c(c12)OCO3` [Aristolochic acid, 8-methoxy-6-nitrophenanthro(3,4-d)-1,3-dioxole-5-carboxylic acid], the “Inhibition (%) Product diluted at 1/100 in demineralized water” value is reported as 10.00% ± 3.4, the “Inhibition (%) Product diluted at 1/1000 in demineralized water” value (initial solution diluted at 1/1000 in demineralized water) is reported as 0.25% ± 0.5 and the “Inhibition (%) Non-diluted product” value [1] is reported as 96.2% ± 1.04.
Work on `CC(=O)Oc1ccccc1C(=O)O` [Aspirin] yielded an inhibition at 1000 µM [2] of 3.5% and an inhibition at 10000 µM [3] of 7%.
In the case of `C[C@]12CCC(=O)C=C1CC[C@@H]1[C@@H]2C(=O)C[C@@]2(C)[C@H]1CC[C@]2(O)C(=O)CO` [Cortisone], the “percentage inhibition with respect to control” value (Table VII, 10 mM) is reported as 0%.
Compound `O=C(O)Cc1ccccc1Nc1c(Cl)cccc1Cl` [Diclofenac] has an inhibition at 1000 µM [2] of 8% and an inhibition at 10000 µM [3] of 29.8%.
In the case of `C[C@]12CCC(=O)C=C1CC[C@@H]1[C@@H]2[C@@H](O)C[C@@]2(C)[C@H]1CC[C@]2(O)C(=O)CO` [Hydrocortisone], the inhibition at 10000 µM [3] is reported as 4.5%.
In the case of `CC(C)Cc1ccc(C(C)C(=O)O)cc1` (centres unmarked) [Ibuprofen], the inhibition at 1000 µM [2] is reported as 6.9% and the inhibition at 10000 µM [3] is reported as 40.3%.
Work on `COc1ccc2c(c1)c(CC(=O)O)c(C)n2C(=O)c1ccc(Cl)cc1` [Indomethacin] yielded an inhibition at 1000 µM [2] of 0% and an inhibition at 10000 µM [3] of 25.7%.
In the case of `C[C@]12C=CC(=O)C=C1CC[C@@H]1[C@@H]2[C@@H](O)C[C@@]2(C)[C@H]1CC[C@]2(O)C(=O)CO` [Prednisolone], the inhibition at 10000 µM [3] is reported as 6.3%.
`O=c1c(-c2ccc(O)cc2)coc2cc(O)cc(O)c12` [genistein] was tested, and the “inhibition of the PLA2” value (commercial 1% genistein solution) was 28.79%.
`CC(Cc1ccc(O)c(O)c1)C(C)Cc1ccc(O)c(O)c1` (centres unmarked) [nordihydroguaiaretic acid] was tested, and the “Inhibition (%) Product diluted at 1/100 in demineralized water” value was 8.8% ± 0.8 and the “Inhibition (%) Non-diluted product” value [1] was 97.3% ± 13.2.
With `O=C(CBr)c1ccc(Br)cc1` [p-bromophenacyl bromide] the “Inhibition (%) Product diluted at 1/100 in demineralized water” value was 4.5% ± 2.3 and the inhibition at 10000 µM (non-diluted, initial concentrations: aristolochic acid 2 mM, p-bromophenacyl bromide 10 mM, nordihydroguaiaretic acid 5 mM, read-out: Inhibition (%) Non-diluted product) was 29.9%.
For Magnesium gluconate, the “Inhibition by substance diluted at 1% in demineralized water (%)” value was 0% and the “Inhibition by substance tested pure (%)” value was 3.4%.
For Zinc gluconate, the “Inhibition by substance diluted at 1% in demineralized water (%)” value was 12.6% and the “Inhibition by substance tested pure (%)” value was 50%.
